Like-named read-outs stand apart in the source and are kept apart here.
Legend:
Assay type in all cases: cell-based
[1] = biological target: protein kinases (human kinome) (Homo sapiens, UniProt P11802)
Description: (§1) Although development of targeted protein degraders requires a POI binder, among already-liganded proteins such as kinases, it was hypothesized that different targets would have a different propensity for current approaches to degrader-mediated destruction, which was termed ‘degradability’. […] It was rationalized that the probability of identifying the same kinase as a false positive in multiple treatments is low, therefore this analysis served to also assess the robustness of our data and subsequent interpretations. […] Overall, 62 protein kinases were degraded in more than 10 independent treatments, and remarkably, 9 of these (CDK4, AURKA, FER, WEE1, BLK. LIMK2, CDK6, GAK, LIMK1) were each degraded in at least 40 of the 154 independent treatments, emphasizing their predisposition to induced degradation (FIG. 1G; Appendix I).
(§2) Next, the frequency of degradation assessment was corrected for over-representation of molecules in the full dataset by omitting replicate profiling of compounds under different experimental conditions, to remove any bias. […] Unsurprisingly, the top degradable kinases mirror those from the previous analysis (CDK4, AURKA, FER, WEE1, BLK), confirming that in sufficiently large datasets, even with over-representation of certain molecules, frequency of degradation is a good measure of general tractability.

[2] = biological target: protein kinases (human kinome) (Homo sapiens, UniProt Q00534); conditions: for logFC CDK6: CDK6 (Q00534), direction down; for logFC of CDK6 (Q00534): down
Description: as §1, §2

[3] = biological target: protein kinases (human kinome) (Homo sapiens, UniProt Q15118); conditions: PDK1 Q15118; experiment wp084
Description: as §1, §2

[4] = biological target: protein kinases (human kinome) (Homo sapiens, UniProt P30291); conditions: for logFC of WEE1: WEE1 P30291-1
Description: as §1, §2

[5] = biological target: T1, protein kinases (human kinome) (Homo sapiens, UniProt Q08881)
T1 sequence (Q08881 1-620): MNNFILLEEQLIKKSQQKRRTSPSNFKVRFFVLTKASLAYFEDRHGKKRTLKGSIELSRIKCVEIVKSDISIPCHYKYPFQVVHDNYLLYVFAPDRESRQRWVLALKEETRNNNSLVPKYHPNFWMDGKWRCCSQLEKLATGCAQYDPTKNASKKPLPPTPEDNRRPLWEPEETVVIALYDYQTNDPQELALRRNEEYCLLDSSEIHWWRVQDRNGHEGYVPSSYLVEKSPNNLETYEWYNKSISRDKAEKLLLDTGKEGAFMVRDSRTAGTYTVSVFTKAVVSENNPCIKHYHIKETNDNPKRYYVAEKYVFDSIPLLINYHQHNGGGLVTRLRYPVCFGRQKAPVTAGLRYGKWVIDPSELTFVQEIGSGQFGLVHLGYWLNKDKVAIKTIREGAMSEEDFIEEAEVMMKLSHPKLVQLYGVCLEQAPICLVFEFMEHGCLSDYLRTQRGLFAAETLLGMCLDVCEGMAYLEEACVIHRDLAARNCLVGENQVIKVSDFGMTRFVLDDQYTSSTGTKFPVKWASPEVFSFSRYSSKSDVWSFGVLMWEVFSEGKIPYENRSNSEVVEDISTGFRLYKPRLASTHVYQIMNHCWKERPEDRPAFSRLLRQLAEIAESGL
Description: as §1, §2

[6] = biological target: protein kinases (human kinome) (Homo sapiens, UniProt P53671); conditions: for logFC of LIMK2: LIMK2 P53671
Description: as §1, §2

[7] = biological target: protein kinases (human kinome) (Homo sapiens, UniProt P51451); conditions: for logFC of BLK: BLK P51451; for logFC of BLK (P51451): down
Description: as §1, §2

[8] = biological target: protein kinases (human kinome) (Homo sapiens, UniProt P42684)
Description: as §1, §2

[9] = biological target: protein kinases (human kinome) (Homo sapiens, UniProt P41240); conditions: experiment wp045
Description: as §1, §2

[10] = biological target: protein kinases (human kinome) (Homo sapiens, UniProt Q14289)
Description: as §1, §2

[11] = biological target: protein kinases (human kinome) (Homo sapiens, UniProt Q00535); conditions: experiment wp016
Description: as §1, §2

[12] = system: protein kinases (human kinome); conditions: for logFC CSNK1D: experiment wp114
Description: as §1, §2

[13] = biological target: protein kinases (human kinome) (Homo sapiens, UniProt P50613)
Description: as §1, §2

[14] = biological target: protein kinases (human kinome) (Homo sapiens, UniProt Q00537); conditions: experiment wp016
Description: as §1, §2

[15] = biological target: protein kinases (human kinome) (Homo sapiens, UniProt P16591); conditions: for logFC of FER (P16591-1): down; for logFC of FER: FER P16591-1
Description: as §1, §2

[16] = biological target: T2, protein kinases (human kinome) (Homo sapiens, UniProt O14965)
T2 sequence (O14965 1-403): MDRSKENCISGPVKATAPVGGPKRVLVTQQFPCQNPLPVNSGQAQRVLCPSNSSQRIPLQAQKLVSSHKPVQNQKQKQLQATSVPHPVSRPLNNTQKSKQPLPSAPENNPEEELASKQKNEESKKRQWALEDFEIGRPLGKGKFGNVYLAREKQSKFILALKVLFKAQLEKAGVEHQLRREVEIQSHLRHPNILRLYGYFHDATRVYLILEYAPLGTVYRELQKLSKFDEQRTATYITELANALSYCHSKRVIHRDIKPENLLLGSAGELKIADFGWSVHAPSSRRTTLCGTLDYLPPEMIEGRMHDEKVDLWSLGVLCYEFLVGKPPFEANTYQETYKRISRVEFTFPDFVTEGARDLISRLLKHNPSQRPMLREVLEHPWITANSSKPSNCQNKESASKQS
Description: as §1, §2

[17] = biological target: protein kinases (human kinome) (Homo sapiens, UniProt Q2M2I8); conditions: experiment wp016
Description: as §1, §2

[18] = biological target: protein kinases (human kinome) (Homo sapiens, UniProt P24941); conditions: experiment wp016
Description: as §1, §2

[19] = biological target: protein kinases (human kinome) (Homo sapiens, UniProt Q9NYV4); conditions: experiment wp016
Description: as §1, §2

[20] = biological target: protein kinases (human kinome) (Homo sapiens, UniProt Q05397); conditions: experiment wp011
Description: as §1, §2

[21] = biological target: protein kinases (human kinome) (Homo sapiens, UniProt Q8TDR2); conditions: experiment wp114
Description: as §1, §2

[22] = experiment wp016, direction of change down

Chain of protein kinases (human kinome) (Homo sapiens, UniProt P11802) (P11802 whole entry): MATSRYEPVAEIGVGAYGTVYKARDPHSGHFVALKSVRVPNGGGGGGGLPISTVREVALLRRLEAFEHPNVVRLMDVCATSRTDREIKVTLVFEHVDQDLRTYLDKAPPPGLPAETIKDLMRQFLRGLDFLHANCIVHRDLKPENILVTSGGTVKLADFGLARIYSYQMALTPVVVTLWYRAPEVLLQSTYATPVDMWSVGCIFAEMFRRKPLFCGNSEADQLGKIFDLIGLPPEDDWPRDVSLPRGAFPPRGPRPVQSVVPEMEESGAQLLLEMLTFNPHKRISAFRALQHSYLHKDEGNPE
Chain of protein kinases (human kinome) (Homo sapiens, UniProt P30291) (P30291 whole entry): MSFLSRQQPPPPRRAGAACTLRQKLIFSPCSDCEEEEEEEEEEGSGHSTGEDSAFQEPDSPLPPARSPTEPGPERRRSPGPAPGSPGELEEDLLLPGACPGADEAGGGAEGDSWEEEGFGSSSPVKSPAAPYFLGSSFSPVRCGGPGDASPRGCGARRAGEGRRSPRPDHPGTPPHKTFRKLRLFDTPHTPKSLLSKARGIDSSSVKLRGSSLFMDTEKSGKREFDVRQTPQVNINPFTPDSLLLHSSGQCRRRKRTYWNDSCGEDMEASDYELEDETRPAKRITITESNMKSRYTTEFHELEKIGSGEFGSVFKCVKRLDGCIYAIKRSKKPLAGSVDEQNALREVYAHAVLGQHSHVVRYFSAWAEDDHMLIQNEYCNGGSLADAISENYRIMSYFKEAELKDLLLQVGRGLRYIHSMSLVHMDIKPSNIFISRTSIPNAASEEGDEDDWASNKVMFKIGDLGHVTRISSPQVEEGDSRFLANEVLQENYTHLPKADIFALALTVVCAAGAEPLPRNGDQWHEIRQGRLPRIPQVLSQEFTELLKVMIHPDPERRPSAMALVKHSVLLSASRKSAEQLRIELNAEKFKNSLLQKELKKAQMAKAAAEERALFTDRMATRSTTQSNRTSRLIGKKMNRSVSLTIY
Chain of protein kinases (human kinome) (Homo sapiens, UniProt Q00534) (Q00534 whole entry): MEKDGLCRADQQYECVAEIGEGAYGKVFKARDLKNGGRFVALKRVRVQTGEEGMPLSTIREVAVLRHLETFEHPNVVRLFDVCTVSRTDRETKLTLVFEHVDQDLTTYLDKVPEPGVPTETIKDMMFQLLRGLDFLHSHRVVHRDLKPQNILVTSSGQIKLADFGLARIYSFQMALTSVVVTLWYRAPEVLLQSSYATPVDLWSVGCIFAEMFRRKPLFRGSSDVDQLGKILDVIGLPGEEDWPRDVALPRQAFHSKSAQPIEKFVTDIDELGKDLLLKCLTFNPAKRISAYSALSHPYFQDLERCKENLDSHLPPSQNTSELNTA
Chain of protein kinases (human kinome) (Homo sapiens, UniProt P16591) (P16591 whole entry): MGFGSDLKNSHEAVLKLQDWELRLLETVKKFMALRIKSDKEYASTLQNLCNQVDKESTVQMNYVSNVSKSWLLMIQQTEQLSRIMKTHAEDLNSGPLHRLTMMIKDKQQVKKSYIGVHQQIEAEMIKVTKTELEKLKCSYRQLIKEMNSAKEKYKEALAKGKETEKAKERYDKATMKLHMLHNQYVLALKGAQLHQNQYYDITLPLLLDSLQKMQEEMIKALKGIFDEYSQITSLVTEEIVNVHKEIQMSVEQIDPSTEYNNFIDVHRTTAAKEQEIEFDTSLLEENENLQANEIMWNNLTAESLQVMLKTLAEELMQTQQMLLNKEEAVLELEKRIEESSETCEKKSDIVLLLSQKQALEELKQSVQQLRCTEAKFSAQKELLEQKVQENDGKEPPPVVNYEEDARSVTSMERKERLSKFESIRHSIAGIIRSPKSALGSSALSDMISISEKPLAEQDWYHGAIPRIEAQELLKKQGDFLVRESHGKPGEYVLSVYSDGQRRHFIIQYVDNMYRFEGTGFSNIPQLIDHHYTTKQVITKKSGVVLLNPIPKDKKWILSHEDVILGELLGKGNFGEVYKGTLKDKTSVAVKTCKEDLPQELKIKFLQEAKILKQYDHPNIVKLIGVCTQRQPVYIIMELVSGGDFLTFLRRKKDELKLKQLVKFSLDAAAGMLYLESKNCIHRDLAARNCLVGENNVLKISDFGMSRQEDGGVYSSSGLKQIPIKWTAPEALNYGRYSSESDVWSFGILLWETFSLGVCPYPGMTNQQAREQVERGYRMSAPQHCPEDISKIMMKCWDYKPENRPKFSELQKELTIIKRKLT
Chain of protein kinases (human kinome) (Homo sapiens, UniProt P53671) (P53671 whole entry): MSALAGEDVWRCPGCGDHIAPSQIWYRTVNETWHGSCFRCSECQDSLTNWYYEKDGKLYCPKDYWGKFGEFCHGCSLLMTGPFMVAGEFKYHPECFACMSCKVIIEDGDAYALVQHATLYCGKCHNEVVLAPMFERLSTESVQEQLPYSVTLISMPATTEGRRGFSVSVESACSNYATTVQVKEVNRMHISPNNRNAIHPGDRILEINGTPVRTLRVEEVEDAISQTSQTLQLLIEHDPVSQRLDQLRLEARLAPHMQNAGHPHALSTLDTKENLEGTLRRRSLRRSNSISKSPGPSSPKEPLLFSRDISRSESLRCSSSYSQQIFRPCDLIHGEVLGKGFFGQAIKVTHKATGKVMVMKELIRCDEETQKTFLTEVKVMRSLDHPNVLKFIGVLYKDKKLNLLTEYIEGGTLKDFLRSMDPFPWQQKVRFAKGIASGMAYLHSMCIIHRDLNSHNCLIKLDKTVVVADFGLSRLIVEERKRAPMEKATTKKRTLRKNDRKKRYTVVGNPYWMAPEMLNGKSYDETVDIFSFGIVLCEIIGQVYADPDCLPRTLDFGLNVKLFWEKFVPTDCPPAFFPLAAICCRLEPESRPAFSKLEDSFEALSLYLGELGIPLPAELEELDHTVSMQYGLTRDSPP
Chain of protein kinases (human kinome) (Homo sapiens, UniProt P51451) (P51451 whole entry): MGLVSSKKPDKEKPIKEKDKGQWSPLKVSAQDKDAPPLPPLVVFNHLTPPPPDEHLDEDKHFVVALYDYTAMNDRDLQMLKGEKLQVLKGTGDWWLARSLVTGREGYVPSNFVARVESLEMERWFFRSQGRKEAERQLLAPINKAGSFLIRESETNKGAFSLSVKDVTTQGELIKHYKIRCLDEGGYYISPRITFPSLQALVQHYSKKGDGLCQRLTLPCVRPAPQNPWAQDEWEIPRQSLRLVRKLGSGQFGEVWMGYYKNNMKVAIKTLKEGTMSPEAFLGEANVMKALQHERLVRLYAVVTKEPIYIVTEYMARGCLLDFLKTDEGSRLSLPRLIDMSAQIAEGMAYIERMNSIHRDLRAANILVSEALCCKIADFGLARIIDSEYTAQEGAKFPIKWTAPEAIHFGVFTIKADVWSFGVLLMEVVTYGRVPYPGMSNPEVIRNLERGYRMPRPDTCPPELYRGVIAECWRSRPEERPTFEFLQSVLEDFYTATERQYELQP
Chain of protein kinases (human kinome) (Homo sapiens, UniProt Q00535) (Q00535 whole entry): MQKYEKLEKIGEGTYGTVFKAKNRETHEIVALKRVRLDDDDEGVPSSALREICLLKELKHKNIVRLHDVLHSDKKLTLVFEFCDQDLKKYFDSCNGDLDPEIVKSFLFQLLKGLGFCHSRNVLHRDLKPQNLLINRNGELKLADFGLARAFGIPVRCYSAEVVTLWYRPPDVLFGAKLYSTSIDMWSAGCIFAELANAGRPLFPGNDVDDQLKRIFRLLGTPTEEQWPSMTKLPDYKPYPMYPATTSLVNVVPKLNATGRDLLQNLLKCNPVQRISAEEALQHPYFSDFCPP
Chain of protein kinases (human kinome) (Homo sapiens, UniProt Q14289) (Q14289 whole entry): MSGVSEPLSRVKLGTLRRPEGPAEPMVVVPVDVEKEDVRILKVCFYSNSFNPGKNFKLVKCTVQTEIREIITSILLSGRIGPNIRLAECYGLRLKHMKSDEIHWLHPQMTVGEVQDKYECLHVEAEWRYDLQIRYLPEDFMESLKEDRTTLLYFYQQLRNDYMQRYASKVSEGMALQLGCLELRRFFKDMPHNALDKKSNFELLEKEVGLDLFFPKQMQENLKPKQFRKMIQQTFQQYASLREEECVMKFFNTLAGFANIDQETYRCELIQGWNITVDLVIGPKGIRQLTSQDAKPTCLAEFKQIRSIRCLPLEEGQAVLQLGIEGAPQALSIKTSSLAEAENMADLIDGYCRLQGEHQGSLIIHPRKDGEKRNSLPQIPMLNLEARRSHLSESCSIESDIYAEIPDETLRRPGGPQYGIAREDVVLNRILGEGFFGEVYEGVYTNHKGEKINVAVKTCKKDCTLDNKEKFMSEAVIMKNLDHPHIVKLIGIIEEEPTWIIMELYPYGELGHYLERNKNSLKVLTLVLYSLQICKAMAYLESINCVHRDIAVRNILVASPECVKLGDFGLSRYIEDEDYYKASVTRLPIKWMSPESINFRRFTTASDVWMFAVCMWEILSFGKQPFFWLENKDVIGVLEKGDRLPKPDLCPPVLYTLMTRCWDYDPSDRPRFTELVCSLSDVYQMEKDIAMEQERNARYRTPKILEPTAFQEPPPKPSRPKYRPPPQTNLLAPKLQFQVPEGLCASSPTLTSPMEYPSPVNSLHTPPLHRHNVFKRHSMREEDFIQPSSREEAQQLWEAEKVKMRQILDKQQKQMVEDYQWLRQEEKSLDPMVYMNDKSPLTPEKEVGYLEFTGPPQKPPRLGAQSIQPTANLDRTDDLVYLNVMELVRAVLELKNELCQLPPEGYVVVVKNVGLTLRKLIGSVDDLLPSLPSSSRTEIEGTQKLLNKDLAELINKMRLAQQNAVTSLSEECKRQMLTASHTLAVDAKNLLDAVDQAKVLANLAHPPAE
Chain of protein kinases (human kinome) (Homo sapiens, UniProt Q15118) (Q15118 29-436): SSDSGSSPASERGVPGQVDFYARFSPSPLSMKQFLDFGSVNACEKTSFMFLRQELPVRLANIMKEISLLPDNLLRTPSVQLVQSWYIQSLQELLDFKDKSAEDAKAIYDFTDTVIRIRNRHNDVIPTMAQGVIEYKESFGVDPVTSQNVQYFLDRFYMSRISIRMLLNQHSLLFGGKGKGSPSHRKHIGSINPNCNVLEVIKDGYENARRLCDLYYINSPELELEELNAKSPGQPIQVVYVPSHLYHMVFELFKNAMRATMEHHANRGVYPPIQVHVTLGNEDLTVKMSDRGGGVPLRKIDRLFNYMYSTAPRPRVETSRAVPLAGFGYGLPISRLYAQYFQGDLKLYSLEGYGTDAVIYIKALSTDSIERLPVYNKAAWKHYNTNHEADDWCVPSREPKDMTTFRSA

Q: Which “logFC CDK4 (P11802)” value ([1]; experiment wp084) does the source give for CC(=O)c1c(C)c2cnc(Nc3ccc(N4CCN(CCCCNC(=O)COc5cccc6c5C(=O)N(C5CCC(=O)NC5=O)C6=O)CC4)cn3)nc2n(C2CCCC2)c1=O (stereo not shown) [BSJ.03.204] here?
A: The value was −2.162.

Q: What about the “logFC CDK4 (P11802)” value ([1]; experiment wp137) of the same compound?
A: The value was −2.118.

Q: And the “logFC CDK6” value ([2]; experiment wp084)?
A: Its value is −3.574.

Q: What about the “logFC CDK6” value ([2]; experiment wp137) of the same compound?
A: Its value is −2.866.

Q: And the “logFC of CDK6 (Q00534)” value ([2]; Experiment wp084)?
A: Its value is −3.574.

Q: What about the “logFC of CDK6 (Q00534)” value ([2]; Experiment wp137) of the same compound?
A: The value was −2.866.

Q: What about the logFC [3] of the same compound?
A: The logFC was −0.3767.

Q: What about the “logFC PDK1” value [3] of the same compound?
A: Its value is −0.3767.

Q: And the “logFC of WEE1” value ([4]; experiment wp084)?
A: Its value is −0.5774.

Q: What about the “logFC of WEE1” value ([4]; experiment wp137) of the same compound?
A: Its value is −0.6759.

Q: What about the “logFC WEE1 (P30291-1)” value ([4]; experiment wp084) of the same compound?
A: Its value is −0.5774.

Q: What about the “logFC WEE1 (P30291-1)” value ([4]; experiment wp137) of the same compound?
A: Its value is −0.6759.

Q: COc1cc(C)c(Sc2cnc(NC(=O)c3ccc(N4CCN(CCCCCCCNC(=O)COc5cccc6c5C(=O)N(C5CCC(=O)NC5=O)C6=O)CC4)cc3)s2)cc1C(=O)N1CCN(C(C)=O)CC1 (stereo not shown) [BSJ.05.037] was tested. Which “logFC ITK (Q08881)” value ([5]; experiment wp134) did it give?
A: The value was −1.816.

Q: What about the “logFC of LIMK2” value ([6]; experiment wp134) of the same compound?
A: Its value is −0.4981.

Q: How did the “logFC of BLK” value ([7]; experiment wp045) turn out when Cc1nc(Nc2ncc(C(=O)Nc3c(C)cccc3Cl)s2)cc(N2CCN(CC(=O)NCCCCNC(=O)COc3cccc4c3C(=O)N(C3CCC(=O)NC3=O)C4=O)CC2)n1 (stereo not shown) [DB.3.291] was run?
A: Its value is −0.5857.

Q: And the “logFC of BLK (P51451)” value ([7]; Experiment wp045)?
A: The value was −0.5857.

Q: And the logFC ([8]; ABL2 (P42684) protein abundance, degrader vs DMSO, down)?
A: The logFC was −0.3739.

Q: What about the “logFC ABL2 (P42684)” value ([8]; Experiment wp045) of the same compound?
A: Its value is −0.3739.

Q: And the “logFC WEE1 (P30291-1)” value ([4]; experiment wp045)?
A: The value was −0.4161.

Q: And the “logFC of CSK” value ([9]; Accession P41240)?
A: The value was −2.257.

Q: What about the “logFC CSK” value ([9]; CSK (P41240), down) of the same compound?
A: The value was −2.257.

Q: Which results are given for CC(C)S(=O)(=O)c1ccccc1Nc1nc(Nc2ccc(N3CCN(CCOCCOCCOCCNC(=O)CNc4cccc5c4C(=O)N(C4CCC(=O)NC4=O)C5=O)CC3)cc2)ncc1Cl (stereo not shown) [SK.3.87]?
A: logFC of BLK ([7]; experiment wp016): −0.9329; logFC of BLK (P51451) ([7]; Experiment wp016): −0.9329; logFC ([10]; PTK2B (Q14289-1) protein abundance, degrader vs DMSO, down): −3.217; logFC PTK2B ([10]; PTK2B, accession Q14289-1, experiment wp016, direction of change down): −3.217; logFC of CDK5 ([11]; Accession Q00535): −0.5732; logFC CDK5 (Q00535) ([11]; direction of change down): −0.5732; logFC ([12]; CDK9 (P50750-2) protein abundance, degrader vs DMSO, down): −0.4714; logFC LCK ([12]; LCK, accession P06239-3, experiment wp016, direction of change down): −0.3484; logFC CDK9 (P50750-2) ([12]; experiment wp016): −0.4714; logFC LCK (P06239-3) [12, 22]: −0.3484; logFC ([13]; CDK7 (P50613) protein abundance, degrader vs DMSO, down): −0.5325; logFC CDK7 ([13]; CDK7 P50613, experiment wp016): −0.5325; logFC of CDK17 ([14]; Accession Q00537): −0.6139; logFC CDK17 (Q00537) ([14]; direction of change down): −0.6139; logFC ITK (Q08881) ([5]; experiment wp016): −1.868; logFC ITK (Q08881) [5, 22]: −1.868; logFC LIMK2 ([6]; LIMK2 (P53671), experiment wp016, down): −0.378; logFC of LIMK2 ([6]; experiment wp016): −0.378; logFC of FER (P16591-1) ([15]; Experiment wp016): −1.97; logFC of FER ([15]; experiment wp016): −1.97; logFC WEE1 (P30291-1) ([4]; experiment wp016): −0.9273; logFC AURKA (O14965) ([16]; experiment wp016): −1.381; logFC AAK1 ([17]; AAK1 (Q2M218-1), down): −0.7307; logFC AAK1 ([17]; AAK1, accession Q2M218-1, direction of change down): −0.7307; logFC CDK2 (P24941-1) [18]: −0.3797; logFC CDK2 (P24941-1) ([18]; direction of change down): −0.3797; logFC CDK12 ([19]; Accession Q9NYV4-1): −0.5073; logFC CDK12 ([19]; CDK12 (Q9NYV4-1)): −0.5073

Q: With COc1cc(N2CCN(CCOCCOCCNC(=O)CNc3cccc4c3C(=O)N(C3CCC(=O)NC3=O)C4=O)CC2)ccc1Nc1ncc(Cl)c(Nc2ccccc2S(=O)(=O)C(C)C)n1 (stereo not shown) [TL13.12] as the compound, how does the “logFC PTK2” value ([20]; Accession Q05397, direction down) read?
A: The value was −1.365.

Q: What about the “logFC PTK2” value ([20]; PTK2 Q05397) of the same compound?
A: The value was −1.365.

Q: And the “logFC of FER (P16591-1)” value ([15]; Experiment wp011)?
A: Its value is −0.8459.

Q: What about the “logFC of FER” value ([15]; experiment wp011) of the same compound?
A: The value was −0.8459.

Q: And the “logFC AURKA (O14965)” value ([16]; experiment wp011)?
A: Its value is −0.5988.

Q: Which results are given for Nc1ncc(-c2ccc(S(=O)(=O)N(CCCNC(=O)CCOCCOCCOCCOCCOCCNc3cccc4c3C(=O)N(C3CCC(=O)NC3=O)C4=O)C3CC3)cc2)cc1-c1ccc2c(c1)CCNC2=O (stereo not shown) [WH.10414.099]?
A: logFC CSNK1D ([12]; Accession P48730-2, direction down): −0.6187; logFC CSNK1D ([12]; CSNK1D P48730-2): −0.6187; logFC STK35 ([21]; Accession Q8TDR2, direction down): −0.8902; logFC STK35 ([21]; STK35 (Q8TDR2)): −0.8902

— US20240269139A1, “COMPOUNDS FOR TARGETED PROTEIN DEGRADATION OF KINASES” (DANA-FARBER CANCER INSTITUTE, INC., priority 2020, published 2024)
